What was measured:
[1] = Brain-targeting of GUNW-3 DiR micelles, in-vivo whole body fluorescence imaging
[2] = test system: NCI-H226 cells (human lung cancer cells); experiment: In-vitro cytotoxicity by the MTT assay, NCI-H226 cells; assay type: cell-based
[3] = Chemical stability of GUNW-3 in methanol-ammonium aqueous solution; assay type: physicochemical; settings: methanol-ammonium aqueous solution (1:1), pH 10.8, 4° C., checked 7 days
Procedure: The stability of GUNW-3 in a methanol-ammonium aqueous solution (1:1) at pH 10.8, the pH GUNW-3 was soluble, was checked continuously for 7 days at 4° C. (FIG. 4). […] However, it started to decompose quickly after 3 days.

[4] = test system: CV-1 cells (monkey kidney cells); experiment: In-vitro cytotoxicity by the MTT assay, CV-1 cells; assay type: cell-based; settings: Primates

| Structure (SMILES) | presence in the spinal cord ([1]; mice, lateral image at 1 h) | brain distribution (lateral images) ([1]; mice, tail vein injection, 5 μg DiR, lateral images at 1 h) | IC50 [2] [µM] | stability of GUNW-3 [3] | IC50 [4] [µM] | distribution in liver ([1]; when delivered in micelles) |
| --- | --- | --- | --- | --- | --- | --- |
| CCCCCCCCCCCCCCCCCCN1/C(=C/C=C/C=C/C=C/C2=[N+](CCCCCCCCCCCCCCCCCC)c3ccccc3C2(C)C)C(C)(C)c2ccccc21.[I-] [free DiR] | not observed | no significant brain distribution |  |  |  |  |
| CC(C)CCCC(C)C1CCC2C3CC=C4CC(OCCOCCOC(=O)CCSCC(NC(=O)CCC(N)C(=O)O)C(=O)NCC(=O)O)CC[C@@]4(C)C3CC[C@@]12C (stereo partly drawn) [GUNW-3] |  |  | 470 | stable in the first 3 days | 650 | low distribution in liver |
